We go through one compound from paper PMC2630848, “Acetylcholinesterase-Inhibiting Activity of Pyrrole Derivatives from a Novel Marine Gliding Bacterium, Rapidithrix thailandica” (Marine Drugs, 2008).

The target of the test is acetylcholinesterase (AChE) (Tetronarce californica, UniProt P04058). Put plainly: Ellman colorimetric AChE assay with acetylthiocholine iodide and DTNB, […] nm, triplicate. In kind it is biochemical. (In Ellman's method for cholinesterases, released thiocholine reacts with DTNB.)

For orientation: IC50 means the concentration that gives 50% inhibition.

Chain of acetylcholinesterase (AChE) (P04058 22-564): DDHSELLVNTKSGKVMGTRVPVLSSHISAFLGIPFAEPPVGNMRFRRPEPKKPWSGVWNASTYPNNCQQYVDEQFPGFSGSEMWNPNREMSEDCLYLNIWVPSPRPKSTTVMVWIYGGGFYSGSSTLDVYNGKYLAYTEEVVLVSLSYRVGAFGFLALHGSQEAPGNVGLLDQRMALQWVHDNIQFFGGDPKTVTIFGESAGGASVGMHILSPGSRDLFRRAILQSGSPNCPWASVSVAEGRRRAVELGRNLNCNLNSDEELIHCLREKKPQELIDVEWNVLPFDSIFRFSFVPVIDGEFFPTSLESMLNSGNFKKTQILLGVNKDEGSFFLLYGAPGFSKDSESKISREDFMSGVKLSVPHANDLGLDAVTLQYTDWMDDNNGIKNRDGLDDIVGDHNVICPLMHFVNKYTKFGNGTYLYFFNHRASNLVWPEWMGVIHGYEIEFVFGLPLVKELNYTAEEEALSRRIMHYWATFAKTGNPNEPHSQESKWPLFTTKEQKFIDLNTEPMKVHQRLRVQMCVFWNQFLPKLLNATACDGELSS

In turn, `Cc1nc2ccccc2c2cc[nH]c12` [compound 1, 4-Methyl-3H-pyrrolo[2,3-c]quinoline] registered a 50% inhibitory concentration (IC50) of 4.9 ± 0.9 µM.
